These results are taken from US20190210996A1, “NOVEL COMPOUNDS” (GLAXOSMITHKLINE INTELLECTUAL PROPERTY DEVELOPMENT LIMITED, priority 2016, published 2019).

Holding throughout (format): cell-based
For one assay, the target named is T1, PTK2 (Homo sapiens, UniProt Q05397).
T1 construct: endogenous in cells; host or cells: THP-1
Kind of assay: Expression proteomics in THP-1 cells: PTK2 protein level. As to conditions: PTK2, THP-1 cells. As to the method:
(§1) THP-1 cells were seeded at a concentration of 3×10^6 cells in T175 flasks with 60 mL growth medium (RPMI1640+10% FBS). […] of a 10× compound solution prepared in growth medium (DMSO), CEREBLON_PROTAC) was added and the cells were treated for the indicated time points (6 or 24 h) at 37° C., 5% CO2. For harvesting the cells were collected into falcon tubes on ice, centrifuged and washed twice in cold PBS (Life technologies). After the last washing step the supernatant was removed and the pellets were snap-frozen in liquid N2 and stored at −80° C. and lysed in 2% SDS for 3 min at 95° C. in a thermomixer (Thermo Fisher Scientific), followed by digestion of DNA with Benzonase at 37° C. for 1.5 h. Lysate was cleared by centrifugation an protein concentration in supernatant was determined by BCA assay.
(§2) Leukemia 25, 89-100 (2011).
(§3) Samples were dried in vacuo and resuspended in 0.05% trifluoroacetic acid in water. Of the sample, 50% was injected into an Ultimate3000 nanoRLSC (Dionex, Sunnyvale, Calif.) coupled to a Q Exactive HF (Thermo Fisher Scientific). Peptides were trapped on a 5 mm×300 μm C18 column (Pepmap100, 5 μm, 300 Å, Thermo Fisher Scientific) in water with 0.05% TFA at 60° C. Separation was performed on custom 50 cm×[…] (ID) reversed-phase columns (Reprosil) at 55° C. Gradient elution was performed from 2% acetonitrile to 40% acetonitrile in 0.1% formic acid and 3.5% DMSO over 2 hours. Samples were online injected into Q-Exactive HF mass spectrometers operating with a data-dependent top 10 method. MS spectra were acquired by using 60.000 resolution and an ion target of 3×10^6. Higher energy collisional dissociation (HCD) scans were performed with 35% NCE at 30.000 resolution (at m/z 200), and the ion target settings was set to 2×10^5 so as to avoid coalescence (Werner, T. et al. Ion Coalescence of Neutron Encoded TMT 10-Plex Reporter Ions. Anal. Chem. 86, 3594-3601 (2014).
(§4) The first search was performed with 30 parts per million mass tolerance for peptide precursors and 30 mD (HCD) mass tolerance for fragment ions followed by a final search using recalibrated data with a 10 parts per million mass tolerance for peptide precursors and 20 mD (HCD) mass tolerance for fragment ions. Carbamidomethylation of cysteine residues and TMT modification of lysine residues were set as fixed modifications and methionine oxidation, and N-terminal acetylation of proteins and TMT modification of peptide N-termini were set as variable modifications. […]
(§5) Nat Biotech 29, 255-265 (2011). this measure is referred to as ion area Savitski, M. M. et al. Delayed Fragmentation and Optimized Isolation Width Settings for Improvement of Protein Identification and Accuracy of Isobaric Mass Tag Quantification on Orbitrap-Type Mass Spectrometers. […]

The next assay deals with T2, RPS6KA1 (Homo sapiens, UniProt Q15418).
T2 construct: endogenous in cells; host or cells: THP-1
T2 sequence (Q15418 whole entry): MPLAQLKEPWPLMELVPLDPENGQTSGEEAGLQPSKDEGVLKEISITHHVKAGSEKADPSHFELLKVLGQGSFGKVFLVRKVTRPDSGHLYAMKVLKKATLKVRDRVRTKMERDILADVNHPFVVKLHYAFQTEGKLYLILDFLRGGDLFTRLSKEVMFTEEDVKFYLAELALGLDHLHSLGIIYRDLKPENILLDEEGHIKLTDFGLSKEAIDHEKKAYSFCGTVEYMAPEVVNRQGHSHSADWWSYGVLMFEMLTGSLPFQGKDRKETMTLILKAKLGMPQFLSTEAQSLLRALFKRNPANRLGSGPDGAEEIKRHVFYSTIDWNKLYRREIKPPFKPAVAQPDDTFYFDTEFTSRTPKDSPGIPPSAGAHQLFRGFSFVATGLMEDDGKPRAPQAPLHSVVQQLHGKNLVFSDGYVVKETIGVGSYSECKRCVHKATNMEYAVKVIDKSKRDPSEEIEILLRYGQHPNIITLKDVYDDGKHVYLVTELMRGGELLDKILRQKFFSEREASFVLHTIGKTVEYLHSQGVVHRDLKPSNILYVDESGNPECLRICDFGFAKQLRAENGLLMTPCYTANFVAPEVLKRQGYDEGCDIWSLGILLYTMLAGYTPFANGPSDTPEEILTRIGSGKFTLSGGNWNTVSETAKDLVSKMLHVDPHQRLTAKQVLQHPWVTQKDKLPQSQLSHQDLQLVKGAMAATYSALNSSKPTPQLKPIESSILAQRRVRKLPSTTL
Kind of assay: Expression proteomics in THP-1 cells: RPS6KA1 protein level. The conditions noted are these: RPS6KA1, THP-1 cells. As to the method: as §1, §2, §3, §4, §5

Another assay has as its target T3, MAPK9 (Homo sapiens, UniProt P45984).
T3 construct: endogenous in cells; host or cells: THP-1
Kind of assay: Expression proteomics in THP-1 cells: MAPK9 protein level. As to conditions: MAPK9, THP-1 cells. The method, then:
as §1, §2, §3, §4, §5

For another assay, the target named is T4, TEC (Homo sapiens, UniProt P42680).
T4 construct: endogenous in cells; host or cells: THP-1
T4 sequence (P42680 1-631): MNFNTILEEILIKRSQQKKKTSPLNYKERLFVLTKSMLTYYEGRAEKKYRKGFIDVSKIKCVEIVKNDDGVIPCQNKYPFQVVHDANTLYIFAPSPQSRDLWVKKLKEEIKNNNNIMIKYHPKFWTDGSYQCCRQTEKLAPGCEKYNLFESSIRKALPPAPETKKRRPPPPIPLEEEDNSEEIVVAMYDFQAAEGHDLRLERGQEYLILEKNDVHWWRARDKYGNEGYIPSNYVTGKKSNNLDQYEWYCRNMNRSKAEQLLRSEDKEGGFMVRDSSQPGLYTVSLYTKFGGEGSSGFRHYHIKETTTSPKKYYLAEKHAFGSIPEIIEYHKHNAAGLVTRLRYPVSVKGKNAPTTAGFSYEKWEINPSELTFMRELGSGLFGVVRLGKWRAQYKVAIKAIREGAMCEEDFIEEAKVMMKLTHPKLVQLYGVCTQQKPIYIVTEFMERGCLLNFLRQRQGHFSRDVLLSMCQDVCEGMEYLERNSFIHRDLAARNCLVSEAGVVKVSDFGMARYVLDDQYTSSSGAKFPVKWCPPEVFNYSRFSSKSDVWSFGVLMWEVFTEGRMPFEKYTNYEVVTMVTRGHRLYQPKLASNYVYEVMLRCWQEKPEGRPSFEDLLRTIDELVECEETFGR
Kind of assay: Expression proteomics in THP-1 cells: TEC protein level. The method, then: as §1, §2, §3, §4, §5

Another assay deals with T5, RPS6KA3 (Homo sapiens, UniProt P51812).
T5 construct: endogenous in cells; host or cells: THP-1
T5 sequence (P51812 whole entry): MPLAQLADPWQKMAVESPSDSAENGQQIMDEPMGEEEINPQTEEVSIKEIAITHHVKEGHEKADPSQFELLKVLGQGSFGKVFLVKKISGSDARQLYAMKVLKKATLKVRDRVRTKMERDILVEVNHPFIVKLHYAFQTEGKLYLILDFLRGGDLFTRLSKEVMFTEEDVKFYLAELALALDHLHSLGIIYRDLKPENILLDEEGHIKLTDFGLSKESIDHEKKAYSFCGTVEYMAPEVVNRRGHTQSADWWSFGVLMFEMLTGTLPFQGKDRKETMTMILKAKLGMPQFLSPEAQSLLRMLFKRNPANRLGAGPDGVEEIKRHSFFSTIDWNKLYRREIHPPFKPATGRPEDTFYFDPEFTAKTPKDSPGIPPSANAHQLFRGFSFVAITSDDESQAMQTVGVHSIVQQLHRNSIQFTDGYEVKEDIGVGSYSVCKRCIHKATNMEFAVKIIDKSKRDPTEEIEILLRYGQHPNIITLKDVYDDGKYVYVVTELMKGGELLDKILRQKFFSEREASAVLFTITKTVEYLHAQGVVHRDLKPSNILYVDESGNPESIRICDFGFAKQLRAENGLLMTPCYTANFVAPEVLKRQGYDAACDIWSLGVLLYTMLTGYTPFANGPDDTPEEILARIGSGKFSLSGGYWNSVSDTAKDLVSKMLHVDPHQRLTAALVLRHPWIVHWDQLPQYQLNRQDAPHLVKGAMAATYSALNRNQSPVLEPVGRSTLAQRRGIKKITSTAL
Kind of assay: Expression proteomics in THP-1 cells: RPS6KA3 protein level. The conditions noted are these: RPS6KA3, THP-1 cells. As to the method:
as §1, §2, §3, §4, §5

T3 sequence (P45984 whole entry): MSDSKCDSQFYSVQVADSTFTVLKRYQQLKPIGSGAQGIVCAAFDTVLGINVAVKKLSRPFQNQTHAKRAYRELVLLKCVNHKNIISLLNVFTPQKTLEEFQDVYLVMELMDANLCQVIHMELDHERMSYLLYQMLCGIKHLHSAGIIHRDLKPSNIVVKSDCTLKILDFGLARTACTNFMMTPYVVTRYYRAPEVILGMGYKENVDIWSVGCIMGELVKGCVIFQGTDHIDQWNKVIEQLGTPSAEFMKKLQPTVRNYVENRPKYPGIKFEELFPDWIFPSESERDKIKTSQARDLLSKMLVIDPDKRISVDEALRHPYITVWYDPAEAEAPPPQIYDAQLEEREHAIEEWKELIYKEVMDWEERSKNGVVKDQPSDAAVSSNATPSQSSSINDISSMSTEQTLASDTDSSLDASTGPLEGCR
T1 sequence (Q05397 whole entry): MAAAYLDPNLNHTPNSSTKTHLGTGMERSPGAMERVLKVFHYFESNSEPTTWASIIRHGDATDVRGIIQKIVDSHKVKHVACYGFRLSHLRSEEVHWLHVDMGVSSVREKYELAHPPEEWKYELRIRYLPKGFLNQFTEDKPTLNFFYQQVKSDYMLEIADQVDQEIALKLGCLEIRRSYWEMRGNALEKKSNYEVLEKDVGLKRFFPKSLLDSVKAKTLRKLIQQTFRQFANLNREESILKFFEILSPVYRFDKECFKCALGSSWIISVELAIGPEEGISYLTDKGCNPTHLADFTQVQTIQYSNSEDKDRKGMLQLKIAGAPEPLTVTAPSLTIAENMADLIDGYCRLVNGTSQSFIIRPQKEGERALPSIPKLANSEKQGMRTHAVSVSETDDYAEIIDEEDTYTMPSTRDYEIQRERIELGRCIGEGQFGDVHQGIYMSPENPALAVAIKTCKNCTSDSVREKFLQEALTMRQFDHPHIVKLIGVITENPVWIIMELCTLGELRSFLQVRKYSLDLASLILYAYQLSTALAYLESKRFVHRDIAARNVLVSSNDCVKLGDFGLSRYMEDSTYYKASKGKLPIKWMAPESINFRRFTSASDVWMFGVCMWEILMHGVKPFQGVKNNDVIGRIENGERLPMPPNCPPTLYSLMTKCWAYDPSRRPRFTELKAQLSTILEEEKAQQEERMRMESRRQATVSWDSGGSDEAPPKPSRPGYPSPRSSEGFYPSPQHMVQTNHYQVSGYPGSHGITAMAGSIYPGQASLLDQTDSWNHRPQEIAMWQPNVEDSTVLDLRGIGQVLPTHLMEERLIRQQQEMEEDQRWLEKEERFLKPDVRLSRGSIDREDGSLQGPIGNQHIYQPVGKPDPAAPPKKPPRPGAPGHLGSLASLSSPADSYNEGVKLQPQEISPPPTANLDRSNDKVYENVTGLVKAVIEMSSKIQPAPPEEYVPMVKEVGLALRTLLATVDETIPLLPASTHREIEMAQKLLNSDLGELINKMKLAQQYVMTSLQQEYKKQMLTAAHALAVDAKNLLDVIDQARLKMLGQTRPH

`CNC(=O)c1ccccc1Nc1nc(Nc2ccc(N3CCN(CCOCCOCCOCCOCC(=O)Nc4cccc5c4CN(C4CCC(=O)NC4=O)C5=O)CC3)cc2)ncc1Cl.O=CO` (centres unmarked) [CEREBLON_PROTAC, 14-(4-(4-((5-Chloro-4-((2-(methylcarbamoyl)phenyl)amino)pyrimidin-2-yl)amino)phenyl)piperazin-1-yl)-N-(2-(2,6-dioxopiperidin-3-yl)-1-oxoisoindolin-4-yl)-3,6,9,12-tetraoxatetradecan-1-amide formate]: the “log2 rel. fc. to vehicle control” value is −2.29 at PTK2 (24 h 0.1 μM, n = 1); −2.92 on PTK2 (24 h 0.1 μM, n = 2); −2.42 on PTK2 (24 h 1 μM, n = 1); −2.20 on PTK2 (24 h 1 μM, n = 2); −1.65 at RPS6KA1 (24 h 0.1 μM, n = 1); −1.55 on RPS6KA1 (24 h 0.1 μM, n = 2). Besides, the “log2 rel. fc. to vehicle control” value is recorded as −1.86 at RPS6KA1 (24 h 1 μM, n = 1); −1.93 at RPS6KA1 (24 h 1 μM, n = 2); −0.69 at MAPK9 (24 h 0.1 μM, n = 1); −0.98 on MAPK9 (24 h 0.1 μM, n = 2); −1.83 on MAPK9 (24 h 1 μM, n = 1); −1.75 on MAPK9 (24 h 1 μM, n = 2). In addition, the “log2 rel. fc. to vehicle control” value is given as −1.83 on TEC (24 h 0.1 μM, n = 1); −2.38 on TEC (24 h 0.1 μM, n = 2); −1.74 at TEC (24 h 1 μM, n = 1); −1.94 at TEC (24 h 1 μM, n = 2); −0.74 at RPS6KA3 (24 h 0.1 μM, n = 1); −0.72 at RPS6KA3 (24 h 0.1 μM, n = 2). For the same compound, the “log2 rel. fc. to vehicle control” value is given as −1.12 on RPS6KA3 (24 h 1 μM, n = 1) and −1.11 on RPS6KA3 (24 h 1 μM, n = 2).
